Measured values as given in PubChem BioAssay (NCI).
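Cells were grown in 96-well plates and exposed to each compound for 48 hours at five concentrations; endpoints were interpolated linearly between bracketing concentrations, or set to the highest concentration if not reached. TGI: total growth inhibition.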

How the values were obtained:
Experiment in all cases: DTP human tumour cell line panel, 48 h
CAKI-1 renal = system: CAKI-1 renal
HT29 colon = system: HT29 colon
COLO 205 colon = system: COLO 205 colon
DU-145 prostate = system: DU-145 prostate
OVCAR-3 ovarian = system: OVCAR-3 ovarian
SNB-78 CNS = system: SNB-78 CNS
LOX IMVI melanoma = system: LOX IMVI melanoma
HCC-2998 colon = system: HCC-2998 colon
DMS 273 small cell lung = system: DMS 273 small cell lung
SNB-19 CNS = system: SNB-19 CNS
A498 renal = system: A498 renal
SNB-75 CNS = system: SNB-75 CNS
MOLT-4 leukemia = system: MOLT-4 leukemia
SF-268 CNS = system: SF-268 CNS
TK-10 renal = system: TK-10 renal
NCI/ADR-RES ovarian = system: NCI/ADR-RES ovarian
UACC-62 melanoma = system: UACC-62 melanoma
IGROV1 ovarian = system: IGROV1 ovarian
HCT-116 colon = system: HCT-116 colon
SF-539 CNS = system: SF-539 CNS
SK-MEL-5 melanoma = system: SK-MEL-5 melanoma
BT-549 breast = system: BT-549 breast
SR leukemia = system: SR leukemia
MCF7 breast = system: MCF7 breast
786-0 renal = system: 786-0 renal
UO-31 renal = system: UO-31 renal
NCI-H522 lung = system: NCI-H522 lung
KM20L2 colon = system: KM20L2 colon
SK-MEL-28 melanoma = system: SK-MEL-28 melanoma
HOP-62 NSCLC = system: HOP-62 NSCLC
NCI-H23 lung = system: NCI-H23 lung
OVCAR-8 ovarian = system: OVCAR-8 ovarian
UACC-257 melanoma = system: UACC-257 melanoma
SK-OV-3 ovarian = system: SK-OV-3 ovarian
SN12C renal = system: SN12C renal
HOP-18 NSCLC = system: HOP-18 NSCLC
SK-MEL-2 melanoma = system: SK-MEL-2 melanoma
SW-620 colon = system: SW-620 colon
DMS 114 small cell lung = system: DMS 114 small cell lung
SF-295 CNS = system: SF-295 CNS
RPMI-8226 leukemia = system: RPMI-8226 leukemia
KM12 colon = system: KM12 colon
NCI-H226 lung = system: NCI-H226 lung
MALME-3M melanoma = system: MALME-3M melanoma
U251 CNS = system: U251 CNS
A549 NSCLC = system: A549 NSCLC
MDA-MB-435 = system: MDA-MB-435
OVCAR-5 ovarian = system: OVCAR-5 ovarian
DLD-1 colon = system: DLD-1 colon
MDA-MB-231 breast = system: MDA-MB-231 breast
HOP-92 NSCLC = system: HOP-92 NSCLC
OVCAR-4 ovarian = system: OVCAR-4 ovarian
HL-60(TB) leukemia = system: HL-60(TB) leukemia
MDA-N = system: MDA-N
K-562 leukemia = system: K-562 leukemia
M14 melanoma = system: M14 melanoma
T-47D breast = system: T-47D breast
ACHN renal = system: ACHN renal
XF 498 CNS = system: XF 498 CNS
EKVX NSCLC = system: EKVX NSCLC
CCRF-CEM leukemia = system: CCRF-CEM leukemia
LXFL 529 NSCLC = system: LXFL 529 NSCLC
RXF 393 renal = system: RXF 393 renal
PC-3 prostate = system: PC-3 prostate
HCT-15 colon = system: HCT-15 colon
NCI-H460 lung = system: NCI-H460 lung
M19-MEL melanoma = system: M19-MEL melanoma

Measured: TGI

CCN(CC)CCCNc1ncc(C)c2c1c1ccc3c(O)cccc3c1n2C
2.58 µM: HOP-62 NSCLC
3.45 µM: OVCAR-4 ovarian
14.9 µM: SF-539 CNS
> 61 µM: SNB-78 CNS
3.79 µM: DU-145 prostate
2.61 µM: SW-620 colon
2.64 µM: LOX IMVI melanoma
5.07 µM: HL-60(TB) leukemia
2.68 µM: DMS 114 small cell lung
26.2 µM: NCI-H226 lung
3.15 µM: KM12 colon
10.5 µM: KM20L2 colon
49.3 µM: T-47D breast
11.8 µM: OVCAR-5 ovarian
33.8 µM: SK-MEL-2 melanoma | MDA-MB-435
4.82 µM: NCI-H23 lung
3.17 µM: SNB-19 CNS
31 µM: UACC-257 melanoma
1.84 µM: MOLT-4 leukemia
16.3 µM: HOP-18 NSCLC
> 23.9 µM: RPMI-8226 leukemia
2.29 µM: NCI-H522 lung
17.5 µM: COLO 205 colon | SK-MEL-28 melanoma
3.5 µM: OVCAR-8 ovarian
2.16 µM: PC-3 prostate
2.34 µM: A549 NSCLC
16.6 µM: SK-OV-3 ovarian
2.28 µM: HCT-116 colon
5.97 µM: IGROV1 ovarian
5.04 µM: HT29 colon
1.78 µM: SR leukemia
3.01 µM: MDA-N
29.5 µM: XF 498 CNS
4.76 µM: SF-295 CNS
36.6 µM: SF-268 CNS
26.6 µM: HOP-92 NSCLC
12.8 µM: ACHN renal
4.64 µM: K-562 leukemia
9.41 µM: RXF 393 renal
2.19 µM: 786-0 renal
> 100 µM: NCI/ADR-RES ovarian
4.31 µM: HCC-2998 colon
49.2 µM: UACC-62 melanoma
9.07 µM: M14 melanoma
32 µM: A498 renal
2.06 µM: MCF7 breast
6.87 µM: EKVX NSCLC
3.85 µM: DLD-1 colon
14.3 µM: SN12C renal
13.4 µM: SK-MEL-5 melanoma
3.06 µM: LXFL 529 NSCLC
2.6 µM: U251 CNS
18.2 µM: OVCAR-3 ovarian
3.42 µM: MDA-MB-231 breast
4.05 µM: BT-549 breast
21.2 µM: UO-31 renal
3.4 µM: CAKI-1 renal
6.74 µM: SNB-75 CNS
34.7 µM: MALME-3M melanoma
2.14 µM: DMS 273 small cell lung
6.1 µM: CCRF-CEM leukemia
22.9 µM: TK-10 renal

Nc1ncnc2c1ncn2C1CC(OC2CCCCO2)C(CO)O1 (stereo not drawn)
not listed: CAKI-1 renal | DU-145 prostate | SNB-75 CNS | NCI/ADR-RES ovarian | UACC-62 melanoma | SK-MEL-5 melanoma | BT-549 breast | MCF7 breast | MDA-MB-435 | MDA-MB-231 breast | MDA-N | T-47D breast | PC-3 prostate
> 100 µM: all other assays above

Cc1ccccc1NC(=O)c1ccc([N+](=O)[O-])cc1
not listed: DU-145 prostate | NCI/ADR-RES ovarian | BT-549 breast | SR leukemia | MCF7 breast | SK-MEL-2 melanoma | MDA-MB-435 | MDA-MB-231 breast | MDA-N | T-47D breast | PC-3 prostate
> 100 µM: all other assays above

CCOC(=O)Nn1c(C)cc(C(=O)OC)c1C
not listed: DU-145 prostate | NCI/ADR-RES ovarian | BT-549 breast | SR leukemia | MCF7 breast | HOP-18 NSCLC | MDA-MB-435 | MDA-MB-231 breast | HOP-92 NSCLC | OVCAR-4 ovarian | MDA-N | T-47D breast | PC-3 prostate
> 100 µM: all other assays above
